Test results as given in patent US9717243B2, “Piperidinecarboxylic acid derivatives as fungicides” (priority 2013, dated 2017).
Like-named read-outs stand apart in the source and are kept apart here.

Experiment: LogP by HPLC on reversed phase columns (EEC directive 79/831 Annex V.A8)
Assay type: physicochemical
Description: Calibration was done with straight-chain alkan2-ones (with 3 to 16 carbon atoms) with known LogP values (measurement of LogP values using retention times with linear interpolation between successive alkanones). Lambda-max-values were determined using UV-spectra from 200 nm to 400 nm and the peak values of the chromatographic signals.

[1] = Table 1, compounds of formula (I), LC-UV, acidic range, 0.1% formic acid in water and acetonitrile as eluent
[2] = pH 2.7, synthesis intermediates in preparation examples, read-out: LogP (pH 2.7)

| Log P[a] | Structure (SMILES) | other results |
| --- | --- | --- |
| 2.46 | CCC(C)NC(=O)C1(C#N)CCN(C(=O)Cc2ccc(Cl)cc2)CC1 (stereo not shown) [IV-37] | – |
| 2.52 | CC(C)OC(=O)C1(C(N)=S)CCN(C(=O)Cn2nc(C(F)F)cc2C(F)F)CC1 [II-9] | – |
| 1.74 | COC(=O)C1(C(N)=S)CCN(C(=O)Nc2cc(C(F)(F)F)nn2C)CC1 [II-19] | – |
| 3.85 | C#CCOc1ccc(F)c(F)c1C1CC(c2csc(C3(C(=O)OCC)CCN(C(=O)Cn4nc(C(F)F)cc4C(F)F)CC3)n2)=NO1 (stereo not shown) [Example I-28] | – |
| 3.51 | CCOC(=O)C1(c2nc(C3=NOC(c4ccccc4OS(C)(=O)=O)C3)cs2)CCN(C(=O)Cn2nc(C(F)F)cc2C(F)F)CC1 (stereo not shown) [Example I-26] | – |
| – | CC(C)OC(=O)C1(c2nc(C3=NOC(c4ccccc4-c4ccccc4)C3)cs2)CCN(C(=O)Cn2nc(C(F)F)cc2C(F)F)CC1 (stereo not shown) [Example I-30] | Log P[a] [1]: 4.92 |
| – | COC(=O)C1(C#N)CCN(C(=O)Cn2nc(C(F)F)cc2C(F)F)CC1 [IV-13, methyl 1-{[3,5-bis(difluoromethyl)-1H-pyrazol-1-yl]acetyl}-4-cyanopiperidine-4-carboxylate] | chromatographic logP (Table 2, compounds of formula (IV), LC-UV, acidic range, 0.1% formic acid in water and acetonitrile as eluent, read-out: Log P[a]): 2.26 |
| 3.35 | C#CCOc1ccc(F)c(F)c1C1CC(c2csc(C3(C(=O)OC)CCN(C(=O)Nc4cc(C(F)(F)F)nn4C)CC3)n2)=NO1 (stereo not shown) [Example I-81] | – |
| 3.99 | CC(C)OC(=O)C1(c2nc(C3=NOC(c4c(F)cccc4F)C3)cs2)CCN(C(=O)Cn2nc(C(F)F)cc2C(F)F)CC1 (stereo not shown) [Example I-31] | – |
| 1.44 | N#CC1(C(=O)O)CCN(C(=O)Cn2nc(C(F)F)cc2C(F)F)CC1 [IV-12] | – |
| 3.39 | CS(=O)(=O)Oc1cccc(Cl)c1C1CC(c2csc(C3(C(=O)OC4CCOC4)CCN(C(=O)Cn4nc(C(F)F)cc4C(F)F)CC3)n2)=NO1 (stereo not shown) [Example I-53] | – |
| 3.17 | COC(=O)C1(c2nc(C3=NOC(c4c(F)cccc4F)C3)cs2)CCN(C(=O)Cn2nc(C(F)F)cc2C)CC1 (stereo not shown) [Example I-62] | – |
| 3.17 | COC(=O)C1(c2nc(C3=NOC(c4ccccc4)C3)cs2)CCN(C(=O)Cn2nc(C(F)F)cc2C)CC1 (stereo not shown) [Example I-63] | – |
| 3.48 | COC(=O)C1(c2nc(C3=NOC(c4ccccc4)C3)cs2)CCN(C(=O)Cn2nc(C(F)F)cc2C(F)F)CC1 (stereo not shown) [Example I-5] | – |
| 3.58 | C#CCOC(=O)C1(c2nc(C3=NOC(c4c(Cl)cccc4OS(C)(=O)=O)C3)cs2)CCN(C(=O)Cn2nc(C(F)F)cc2C(F)F)CC1 (stereo not shown) [Example I-78] | – |
| 3.00 | C#CCOc1ccc(F)c(F)c1C1CC(c2csc(C3(C(=O)OC)CCN(C(=O)Nc4cc(C(F)F)nn4C)CC3)n2)=NO1 (stereo not shown) [Example I-16] | – |
| 1.51 | COC(=O)C1(C#N)CCN(C(=O)Nc2cn(C(F)F)nc2C)CC1 [IV-18] | – |
| – | COC(=O)C1(C#N)CCN(C(=O)CCl)CC1 [VI-1, methyl 1-(chloroacetyl)-4-cyanopiperidine-4-carboxylate] | chromatographic logP (Table 3, compounds of formula (VI), LC-UV, acidic range, 0.1% formic acid in water and acetonitrile as eluent, read-out: Log P[a]): 1.27 |
| – | CS(=O)(=O)Oc1cccc(Cl)c1C1CC(C(=O)CBr)=NO1 (stereo not shown) [2-[3-(bromoacetyl)-4,5-dihydro-1,2-oxazol-5-yl]-3-chlorophenyl methanesulfonate] | chromatographic logP [2]: 2.93 |
| – | COC(=O)C1(C(N)=S)CCN(C(=O)Nc2cc(C(F)F)nn2C)CC1 [II-12, methyl 4-carbamothioyl-1-{[3-(difluoromethyl)-1-methyl-1H-pyrazol-5-yl]carbamoyl}piperidine-4-carboxylate] | chromatographic logP (Table 4, compounds of formula (II), LC-UV, acidic range, 0.1% formic acid in water and acetonitrile as eluent, read-out: Log P[a]): 1.33 |
| 2.08 | CCC(C)NC(=O)C1(C#N)CCN(C(=O)Cc2ccccc2)CC1 (stereo not shown) [IV-38] | – |
| 1.28 | CCC(C)NC(=O)C1(C#N)CCN(C(=O)Nc2cccc(C#N)c2)CC1 (stereo not shown) [IV-36] | – |

| Log P[a] | Structure (SMILES) | other results |
| --- | --- | --- |
| 3.11 | COC(=O)C1(c2nc(C3=NOC(c4c(F)cccc4F)C3)cs2)CCN(C(=O)Cn2nc(C)cc2C(F)F)CC1 (stereo not shown) [Example I-75] | – |
| 3.61 | C#CCOc1ccccc1C1CC(c2csc(C3(C(=O)OC)CCN(C(=O)Cn4nc(C(F)F)cc4C(F)F)CC3)n2)=NO1 (stereo not shown) [Example I-4] | – |
| 3.87 | CSCCOC(=O)C1(c2nc(C3=NOC(c4c(F)cccc4F)C3)cs2)CCN(C(=O)Cn2nc(C(F)F)cc2C(F)F)CC1 (stereo not shown) [Example I-49] | – |
| 3.55 | C#CCOc1ccc(F)c(F)c1C1CC(c2csc(C3(C(=O)OC4CCOC4)CCN(C(=O)Cn4nc(C(F)F)cc4C(F)F)CC3)n2)=NO1 (stereo not shown) [Example I-59] | – |
| 3.55 | C#CCOc1ccccc1C1CC(c2csc(C3(C(=O)OC4CCOC4)CCN(C(=O)Cn4nc(C(F)F)cc4C(F)F)CC3)n2)=NO1 (stereo not shown) [Example I-58] | – |
| 2.42 | C=CCOC(=O)C1(C(N)=S)CCN(C(=O)Cn2nc(C(F)F)cc2C(F)F)CC1 [II-3] | – |
| 4.31 | C#CCOc1ccc(F)c(F)c1C1CC(c2csc(C3(C(=O)OCc4ccccc4)CCN(C(=O)Cn4nc(C(F)F)cc4C(F)F)CC3)n2)=NO1 (stereo not shown) [Example I-40] | – |
| 1.68 | COC(=O)C1(C(N)=S)CCN(C(=O)Cn2nc(C(F)F)cc2C)CC1 [II-7] | – |
| 3.09 | C#CCOc1ccc(F)c(F)c1C1CC(c2csc(C3(C(=O)OC)CCN(C(=O)Cn4nc(C)cc4C(F)F)CC3)n2)=NO1 (stereo not shown) [Example I-76] | – |
| 1.89 | COC(=O)C1(C#N)CCN(C(=O)Cn2nc(C(F)F)cc2C)CC1 [IV-9] | – |
| 1.40 | COC(=O)C1(C#N)CCN(C(=O)Nc2cn(C)nc2C(F)F)CC1 [IV-34] | – |
| – | C=CCOC(=O)C1(c2nc(C3=NOC(c4ccccc4-c4ccccc4)C3)cs2)CCN(C(=O)Cn2nc(C(F)F)cc2C(F)F)CC1 (stereo not shown) [Example I-42] | Log P[a] [1]: 4.72 |
| 3.55 | COC(=O)C1(c2nc(C3=NOC(c4c(Cl)cccc4OS(C)(=O)=O)C3)cs2)CCN(C(=O)Cn2nc(C(F)(F)F)cc2C)CC1 (stereo not shown) [Example I-67] | – |
| 4.01 | CC(C)(C)OC(=O)C1(C#N)CCN(C(=S)Nc2ccc(OC(F)(F)F)cc2)CC1 [IV-27] | – |
| 3.55 | COC(=O)C1(c2nc(C3=NOC(c4c(F)cccc4F)C3)cs2)CCN(C(=O)Cn2nc(C(F)(F)F)cc2C)CC1 (stereo not shown) [Example I-69] | – |
| 4.04 | CC(C)OC(=O)C1(c2nc(C3=NOC(c4ccccc4)C3)cs2)CCN(C(=O)Cn2nc(C(F)F)cc2C(F)F)CC1 (stereo not shown) [Example I-32] | – |
| 4.26 | O=C(Cn1nc(C(F)F)cc1C(F)F)N1CCC(C(=O)OCc2ccccc2)(c2nc(C3=NOC(c4ccccc4)C3)cs2)CC1 (stereo not shown) [Example I-38] | – |
| 4.01 | C#CCOc1ccccc1C1CC(c2csc(C3(C(=O)OCCSC)CCN(C(=O)Cn4nc(C(F)F)cc4C(F)F)CC3)n2)=NO1 (stereo not shown) [Example I-51] | – |
| 2.90 | NC(=S)C1(C(=O)OCc2ccccc2)CCN(C(=O)Cn2nc(C(F)F)cc2C(F)F)CC1 [II-4] | – |
| 2.47 | COC(=O)C1(C#N)CCN(C(=O)Nc2cc(C(F)F)ccc2C(F)F)CC1 [IV-16] | – |
| 2.42 | N#CC1(C(=O)O)CCN(C(=O)Nc2ccc(Cl)c(C(F)(F)F)c2)CC1 [IV-30] | – |
| 2.71 | CC(C)=CCN(C)C(=O)C1(C#N)CCN(C(=O)Nc2ccc(F)cc2)CC1 [IV-40] | – |

| Log P[a] | Structure (SMILES) | other results |
| --- | --- | --- |
| 2.20 | CCCCNC(=O)C1(C#N)CCN(C(=O)Nc2ccccc2)CC1 [IV-48] | – |
| 2.82 | CC(C)(C)OC(=O)C1(C#N)CCN(C(=O)Nc2ccccc2)CC1 [IV-20] | – |
| 3.94 | C#CCOc1ccc(F)c(F)c1C1CC(c2csc(C3(C(=O)OCC=C)CCN(C(=O)Cn4nc(C(F)F)cc4C(F)F)CC3)n2)=NO1 (stereo not shown) [Example I-46] | – |
| 3.37 | CC(C)(C)OC(=O)C1(C#N)CCN(C(=O)Cc2ccc(Cl)cc2)CC1 [IV-24] | – |
| 2.26 | N#CC1(C(=O)OC2CCOC2)CCN(C(=O)Cn2nc(C(F)F)cc2C(F)F)CC1 (stereo not shown) [IV-1] | – |
| 3.48 | COCCOC(=O)C1(c2nc(C3=NOC(c4c(Cl)cccc4OS(C)(=O)=O)C3)cs2)CCN(C(=O)Cn2nc(C(F)F)cc2C(F)F)CC1 (stereo not shown) [Example I-77] | – |
| 2.08 | COC(=O)C1(C(N)=S)CCN(C(=O)Cn2nc(C(F)(F)F)cc2C)CC1 [II-6] | – |
| 4.09 | C#CCOc1ccc(F)c(F)c1C1CC(c2csc(C3(C(=O)OC(C)C)CCN(C(=O)Cn4nc(C(F)F)cc4C(F)F)CC3)n2)=NO1 (stereo not shown) [Example I-34] | – |
| 2.26 | CCOC(=O)C1(C(N)=S)CCN(C(=O)Cn2nc(C(F)F)cc2C(F)F)CC1 [II-10] | – |
| 3.72 | CC(C)(C)OC(=O)C1(C#N)CCN(C(=S)Nc2cccc(Cl)c2)CC1 [IV-26] | – |
| 2.68 | CC(C)=CCNC(=O)C1(C#N)CCN(C(=O)Nc2ccc(Cl)cc2)CC1 [IV-43] | – |
| 3.21 | CS(=O)(=O)Oc1ccccc1C1CC(c2csc(C3(C(=O)OC4CCOC4)CCN(C(=O)Cn4nc(C(F)F)cc4C(F)F)CC3)n2)=NO1 (stereo not shown) [Example I-57] | – |
| 2.88 | CC(C)(C)OC(=O)C1(C#N)CCN(C(=O)Nc2cccc(C#N)c2)CC1 [IV-29] | – |
| 3.35 | C#CCOc1ccccc1C1CC(c2csc(C3(C(=O)OC)CCN(C(=O)Nc4cc(C(F)(F)F)nn4C)CC3)n2)=NO1 (stereo not shown) [Example I-80] | – |
| 2.32 | COC(=O)C1(C#N)CCN(C(=O)Cn2nc(C(F)(F)F)cc2C)CC1 [IV-7] | – |
| – | CS(=O)(=O)Oc1ccccc1C1CC(C(=O)CCl)=NO1 (stereo not shown) [2-[3-(chloroacetyl)-4,5-dihydro-1,2-oxazol-5-yl]phenyl methanesulfonate] | chromatographic logP [2]: 2.54 |
| 2.52 | C#CCOC(=O)C1(C#N)CCN(C(=O)Cn2nc(C(F)F)cc2C(F)F)CC1 [IV-4] | – |
| 3.89 | CSCCOC(=O)C1(c2nc(C3=NOC(c4ccccc4)C3)cs2)CCN(C(=O)Cn2nc(C(F)F)cc2C(F)F)CC1 (stereo not shown) [Example I-50] | – |
| 2.55 | CCOC(=O)C1(C#N)CCN(C(=O)Cn2nc(C(F)F)cc2C(F)F)CC1 [IV-11] | – |
| 2.78 | CSCCOC(=O)C1(C#N)CCN(C(=O)Cn2nc(C(F)F)cc2C(F)F)CC1 [IV-3] | – |
